The MIC is the lowest concentration that inhibits growth of the organism.

The assay deals with Escherichia coli ATCC 25922. Briefly: Minimum inhibitory concentration (MIC), CLSI broth micro-dilution, E. coli. The following applies: Escherichia coli. Type of assay: cell-based. An outline of the steps: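 Colonies grown 20 h at 35° C on Trypticase Soy agar (MRSA) or Luria agar (E. coli) were suspended in cation-adjusted Mueller Hinton broth with 0.002% Tween-80. Suspensions were added at OD600 0.0005 to 10-point twofold compound dilutions, then incubated 22 h at 35° C.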

The mark [1] stands for this setting: ATCC25922, Table 7, cation adjusted Mueller Hinton Broth + 0.002% Tween-80, 35° C., 22 hours.
[2] abbreviates: ATCC25922, 22 h, Table 7, cation adjusted Mueller Hinton Broth + 0.002% Tween-80, 35° C.
Setting [3] is: ATCC25922, 22 h, Table 6, cation adjusted Mueller Hinton Broth + 0.002% Tween-80, 35° C.
Setting [4] is: ATCC25922, Table 6, cation adjusted Mueller Hinton Broth + 0.002% Tween-80, 35° C., 22 hours.

`COc1cc(O)c2cc1-c1cc(ccc1OCCN)[C@H](N(C)C(=O)[C@H](CCN)NC(=O)c1c(C)nc(-c3ccc(C(C)(C)C)cc3)nc1C)C(=O)N[C@@H](C)C(=O)N[C@H](C(=O)NCC#N)C2` (racemic) [Compound 625, rac-(8S,11S,14S)-18-(2-aminoethoxy)-N-(cyanomethyl)-5-hydroxy-3-methoxy-11-methyl-14-[methyl-[rac-(2S)-4-amino-2-[[2-(4-tert-butylphenyl)-4,6-dimethyl-pyrimidine-5-carbonyl]amino]butanoyl]amino]-10,13-dioxo-9,12-diazatricyclo[13.3.1.12,6]icosa-1(18),2(20),3,5,15(19),16-hexaene-8-carboxamide]: the MIC under setting [1] was found to be 0.38 µM. On the same count and under the same terms, as for `Cc1nc(-c2ccc(C(C)(C)C)cc2)nc(C)c1C(=O)N[C@@H](CCN)C(=O)N(C)[C@@H]1C(=O)N[C@@H](C)C(=O)N[C@H](C(=O)NCC#N)Cc2cc(c(O)cc2CN)-c2cc1ccc2OCCN` (racemic) [Compound 626, rac-(8S,11S,14S)-18-(2-aminoethoxy)-5-(aminomethyl)-N-(cyanomethyl)-3-hydroxy-11-methyl-14-[methyl-[rac-(2S)-4-amino-2-[[2-(4-tert-butylphenyl)-4,6-dimethyl-pyrimidine-5-carbonyl]amino]butanoyl]amino]-10,13-dioxo-9,12-diazatricyclo[13.3.1.12,6]icosa-1(18),2(20),3,5,15(19),16-hexaene-8-carboxamide], the figure is 0.25 µM; as for `COc1cc(OCCN)c2cc1-c1cc(ccc1OCCN)[C@H](N(C)C(=O)[C@H](CNS(N)(=O)=O)NC(=O)c1c(C)nc(-c3ccc(C(C)(C)C)cc3)nc1C)C(=O)N[C@@H](C)C(=O)N[C@H](C(=O)NCC#N)C2` (racemic) [Compound 627, rac-(8S,11S,14S)-5,18-bis(2-aminoethoxy)-N-(cyanomethyl)-3-methoxy-11-methyl-14-[methyl-[rac-(2S)-2-[[2-(4-tert-butylphenyl)-4,6-dimethyl-pyrimidine-5-carbonyl]amino]-3-(sulfamoylamino)propanoyl]amino]-10,13-dioxo-9,12-diazatricyclo[13.3.1.12,6]icosa-1(18),2(20),3,5,15(19),16-hexaene-8-carboxamide], 0.5 µM; as for `Cc1nc(-c2ccc(C(C)(C)C)cc2)nc(C)c1C(=O)N[C@@H](CNS(N)(=O)=O)C(=O)N(C)[C@@H]1C(=O)N[C@@H](C)C(=O)N[C@H](C(=O)NCC#N)Cc2cc(c(O)cc2OCCN)-c2cc1ccc2OCCN` (racemic) [Compound 628, rac-(8S,11S,14S)-5,18-bis(2-aminoethoxy)-N-(cyanomethyl)-3-hydroxy-11-methyl-14-[methyl-[rac-(2S)-2-[[2-(4-tert-butylphenyl)-4,6-dimethyl-pyrimidine-5-carbonyl]amino]-3-(sulfamoylamino)propanoyl]amino]-10,13-dioxo-9,12-diazatricyclo[13.3.1.12,6]icosa-1(18),2(20),3,5,15(19),16-hexaene-8-carboxamide], 0.44 µM. As to `Cc1nc(-c2ccc(C(C)(C)C)cc2)nc(C)c1C(=O)N[C@@H](CCN)C(=O)N(C)[C@@H]1C(=O)N[C@@H](C)C(=O)N[C@H](C(=O)NCC#N)Cc2ccc(OCCN)c(c2)-c2cc1ccc2CN` (racemic) [Compound 634, rac-(8S,11S,14S)-3-(2-aminoethoxy)-18-(aminomethyl)-N-(cyanomethyl)-11-methyl-14-[methyl-[rac-(2S)-4-amino-2-[[2-(4-tert-butylphenyl)-4,6-dimethyl-pyrimidine-5-carbonyl]amino]butanoyl]amino]-10,13-dioxo-9,12-diazatricyclo[13.3.1.12,6]icosa-1(18),2,4,6(20),15(19),16-hexaene-8-carboxamide], under setting [2], the MIC came out at 0.25 µM.

For the molecule `Cc1nc(-c2ccc(C(C)(C)C)cc2)ncc1C(=O)N[C@@H](CCN)C(=O)N(C)[C@@H]1C(=O)N[C@@H](C)C(=O)N[C@H](C(=O)O)Cc2ccc(OCCN)c(c2)-c2cc1ccc2OCCN` (racemic) [Compound 640, rac-(8S,11S,14S)-3,18-bis(2-aminoethoxy)-11-methyl-14-[methyl-[rac-(2S)-4-amino-2-[[2-(4-tert-butylphenyl)-4-methyl-pyrimidine-5-carbonyl]amino]butanoyl]amino]-10,13-dioxo-9,12-diazatricyclo [13.3.1.12,6]icosa-1(18),2(20),3,5,15(19), 16-hexaene-8-carboxylic acid], the MIC (ATCC25922, 22 h, Table 8, cation adjusted Mueller Hinton Broth + 0.002% Tween-80, 35° C.) was found to be 0.25 µM.

As for `Cc1nc(-c2ccc(C(C)(C)C)cc2)nc(C)c1C(=O)N[C@@H](CCN)C(=O)N(C)[C@@H]1C(=O)N[C@@H](C)C(=O)N[C@H](C(=O)NCC#N)Cc2ccc3c(c2)-c2cc1ccc2OCC(O)(CN)CO3` (stereo partly drawn) [Compound 440], the MIC under setting [3] amounted to 1 µM. On the same count and under the same terms, under `C[C@@H]1NC(=O)[C@@H](N(C)C(=O)[C@H](CCN)NC(=O)C2C3CC(c4ccc(C(C)(C)C)cc4)CC32)c2ccc(OCCN)c(c2)-c2cc(ccc2OCCN)C[C@@H](C(=O)NCC#N)NC1=O` (stereo partly drawn) [Compound 488] stands 0.5 µM. Consider `CC(=O)NCC[C@H](NC(=O)c1c(C)nc(-c2ccc(OC3CCCCC3)cc2)nc1C)C(=O)N(C)[C@@H]1C(=O)N[C@@H](C)C(=O)N[C@H](C(=O)NCC#N)Cc2ccc(OCCN)c(c2)-c2cc1ccc2OCCN` [Compound 496, (8S,11S,14S)-14-[[(2S)-4-acetamido-2-[[2-[4-(cyclohexoxy)phenyl]-4,6-dimethyl-pyrimidine-5-carbonyl]amino]butanoyl]-methyl-amino]-3,18-bis(2-aminoethoxy)-N-(cyanomethyl)-11-methyl-10,13-dioxo-9,12-diazatricyclo[13.3.1.12,6]icosa-1(18),2(20),3,5,15(19),16-hexaene-8-carboxamide], for which, under setting [4], the MIC turned out to be 1 µM. The same measure, in the same setting: under `Cc1nc(-c2ccc(OC3CCCCC3)cc2)nc(C)c1C(=O)N[C@@H](CC(N)=O)C(=O)N(C)[C@@H]1C(=O)N[C@@H](C)C(=O)N[C@H](C(=O)NCC#N)Cc2ccc(OCCN)c(c2)-c2cc1ccc2OCCN` [Compound 506, (2S)-N-[(7S,10S,13S)-3,18-bis(2-aminoethoxy)-13-(cyanomethylcarbamoyl)-10-methyl-8,11-dioxo-9,12-diazatricyclo[13.3.1.12,6]icosa-1(19),2,4,6(20),15,17-hexaen-7-yl]-2-[[2-[4-(cyclohexoxy)phenyl]-4,6-dimethyl-pyrimidine-5-carbonyl]amino]-N-methyl-butanediamide] stands 0.83 µM; under `CC[C@H](NC(=O)c1c(C)nc(-c2ccc(OC3CCCCC3)cc2)nc1C)C(=O)N[C@@H](CCN)C(=O)N(C)[C@@H]1C(=O)N[C@@H](C)C(=O)N[C@H](C(=O)NCC#N)Cc2ccc(OCCN)c(c2)-c2cc1ccc2OCCN` [Compound 510, (8S,11S,14S)-14-[[(2S)-4-amino-2-[[(2S)-2-[[2-[4-(cyclohexoxy)phenyl]-4,6-dimethyl-pyrimidine-5-carbonyl]amino]butanoyl]amino]butanoyl]-methyl-amino]-3,18-bis(2-aminoethoxy)-N-(cyanomethyl)-11-methyl-10,13-dioxo-9,12-diazatricyclo[13.3.1.12,6]icosa-1(18),2(20),3,5,15(19),16-hexaene-8-carboxamide], 1.5 µM; under `Cc1nc(-c2ccc(OC3CCCCC3)cc2)nc(C)c1C(=O)N[C@@H](CCNC(=O)CO)C(=O)N(C)[C@@H]1C(=O)N[C@@H](C)C(=O)N[C@H](C(=O)NCC#N)Cc2ccc(OCCN)c(c2)-c2cc1ccc2OCCN` [Compound 511, (8S,11S,14S)-3,18-bis(2-aminoethoxy)-N-(cyanomethyl)-14-[[(2S)-2-[[2-[4-(cyclohexoxy)phenyl]-4,6-dimethyl-pyrimidine-5-carbonyl]amino]-4-[(2-hydroxyacetyl)amino]butanoyl]-methyl-amino]-11-methyl-10,13-dioxo-9,12-diazatricyclo[13.3.1.12,6]icosa-1(18),2(20),3,5,15(19),16-hexaene-8-carboxamide], 2 µM. Turning to `Cc1nc(-c2ccc(OC3CCCCC3)cc2)nc(C)c1C(=O)N[C@@H](CCNC(=O)NO)C(=O)N(C)[C@@H]1C(=O)N[C@@H](C)C(=O)N[C@H](C(=O)NCC#N)Cc2ccc(OCCN)c(c2)-c2cc1ccc2OCCN` [Compound 512, (8S,11S,14S)-3,18-bis(2-aminoethoxy)-N-(cyanomethyl)-14-[[(2S)-2-[[2-[4-(cyclohexoxy)phenyl]-4,6-dimethyl-pyrimidine-5-carbonyl]amino]-4-(hydroxycarbamoylamino)butanoyl]-methyl-amino]-11-methyl-10,13-dioxo-9,12-diazatricyclo[13.3.1.12,6]icosa-1(18),2(20),3,5,15(19),16-hexaene-8-carboxamide], the MIC under setting [3] was found to be 1 µM. Turning to `CC(=O)Nc1cc2cc(c1O)-c1cc(ccc1OCCN)[C@H](N(C)C(=O)[C@H](CCN)NC(=O)c1c(C)nc(-c3ccc(C(C)(C)C)cc3)nc1C)C(=O)N[C@@H](C)C(=O)N[C@H](C(=O)NCC#N)C2` [Compound 559, (4S,7S,10S)-2^5-acetamido-10-((S)-4-amino-2-(2-(4-(tert-butyl)phenyl)-4,6-dimethylpyrimidine-5-carboxamido)-N-methylbutanamido)-1^6-(2-aminoethoxy)-N-(cyanomethyl)-2^6-hydroxy-7-methyl-6,9-dioxo-5,8-diaza-1,2(1,3)-dibenzenacyclodecaphane-4-carboxamide], the MIC under setting [2] worked out at 0.38 µM.

`Cc1nc(-c2ccc(C(C)(C)C)cc2)nc(C)c1C(=O)N[C@@H](CCN)C(=O)N(C)[C@@H]1C(=O)N[C@@H](C)C(=O)N[C@H](C(=O)NCC#N)Cc2cc(F)c(O)c(c2)-c2cc1ccc2OCCN` [Compound 560, (4S,7S,10S)-10-((S)-4-amino-2-(2-(4-(tert-butyl)phenyl)-4,6-dimethylpyrimidine-5-carboxamido)-N-methylbutanamido)-1^6-(2-aminoethoxy)-N-(cyanomethyl)-2^5-fluoro-2^6-hydroxy-7-methyl-6,9-dioxo-5,8-diaza-1,2(1,3)-dibenzenacyclodecaphane-4-carboxamide]: under setting [2], the MIC turned out to be 0.25 µM.
